# Like-named read-outs stand apart in the source and are kept apart here.
# Assays:
# H3K4me3 in MV4-11 cells = experiment: MV4-11 H3K4me3 Cellular ELISA Assay; format: cell-based; conditions: Homo sapiens, MV4-11, 48 h
# Method: MV4-11 H3K4me3 Cellular ELISA Assay
# MV4-11 (ATCC® CRL-9591™) was cultured with RPMI1640 medium (Thermo Fisher Scientific, cat #11875) supplemented with 10% FBS (Thermo Fisher Scientific, cat #10099141) and 50 U/ml Penicillin-Streptomycin (Thermo Fisher Scientific, cat #10378016) in humidified incubator at 37° C., 5% CO2.
# 200 nL compounds dissolved in DMSO were serially diluted at 1:3 ratio for 12 points starting from 10 mM and dispensed into each wells of cell culture plates (PDL-coated ViewPlate-384 Black, FTC, PerkinElmer, #6007710). 3,750 MV4-11 cells in 40 μL culture medium were seeded into each well and treated with desired concentration for 48 hours. After treatment, wash cells with cold phosphate based buffer (PBS, pH 7.4) and aspirate the remaining PBS buffer. Crude histone lysate was extracted by 40 μL 0.5M HCl for 1 hour in 4° C. following neutralization by adding 32 μL neutralization buffer (0.5M Sodium phosphate dibasic, pH ˜12.5, 1.25 mM Dithiothreitol, Promega #V3151, Protease Inhibitor Cocktail, Sigma #8340) for each well. 5 μL and 20 μL of histone lysate was loaded to ELISA plate (384 Well Plates, PE HB, White, 6005620) for detection of total H3 and H3K4me3, respectively. Shake the plates gently in 4° C. for overnight. After histone binding, plates were washed with 80 μL PBS/T (PBS with 0.05% Tween-20) and blocked with 50 μL 3% BSA diluted in PBS/T per well for 1 hour. Incubate wells with primary antibody for 1 hour at room temperature using anti-H3K4me3 (CST #9727) and anti-total H3 (CST #9715) diluted 1:2000 in 3% BSA. Plates were then washed with PBS/T for 3 times and incubated with horseradish peroxidase (HRP) conjugated secondary antibody (CST #7074, 1:5000) for 1 hour at room temperature. The abundance of H3K4me3 and total H3 were measured by ECL substrates chemiluminescence (Pierce, #34080) on a plate reader (PerkinElmer EnVison 2104 Mutilable Reader). Percentage inhibition was calculated against DMSO control after normalization of H3K4me3 signal to H3 signal for individual samples. The data were then fit to a dose response curve using GraphPad Prism for IC50 calculation.
# MV4-11 cells = experiment: MV4-11 6-Day Cell Growth CTG (CellTiter-Glo) Assay; format: cell-based; conditions: Homo sapiens, MV4-11, 144 h, MV4-11 cell growth CellTiter-Glo, 6 days
# Method: MV4-11 6-Day Cell Growth CTG (CellTiter-Glo) Assay
# Acute myeloid leukemia cell MV4-11 (ATCC® CRL-9591™) was cultured with RPMI 1640 medium (Thermo Fisher Scientific, cat #11875) supplemented with 10% FBS (Thermo Fisher Scientific, cat #10099141) in humidified incubator at 37° C., 5% CO2. To assess the effect of MLL1 inhibition on cell growth, the compound of the present invention was dissolved in DMSO and serially diluted at 1:3 for 12 points starting from 10 mM then 200 nL for the replicate of each dose per well was dispensed to Viewplate-384 Black (Perkin Elmer). Exponentially growing MV4-11 cells were seeded at the density of 300 cells per well in 40 μL to the plate, so the final compound working concentration starts from 50 μM. After 6 days, 40 μL CellTiter-Glo (Promega, cat #G7573) was added into the cell culture well and luminescence was read with Envision (Perkin Elmer) to determine the viable cells. The percentage inhibition was calculated against the samples treated with DMSO only and the data were used for dose response curve fitting in GraphPad Prism to get the IC50 of representative compound of present invention, which reflects the inhibition of MLL1 activity.
# [1] = biological target: wild type MLL1 four-member complex (MLL1-4C) (Homo sapiens, UniProt Q03164); experiment: MLL1 LC-MS Assay; format: biochemical
# Method: The compounds of the present disclosure were serially and separately diluted 3-fold in DMSO to obtain a total of eight or twelve concentrations. Then the test compounds at each concentration (120 nL of each) were transferred by Mosquito into white Proxiplate plus 384-well microplate (PerkinElmer). Solutions (6 μL) of 60 nM wild type MLL1 four-member complex (MLL1-4C) and 5 μM SAM in the reaction buffer (20 mM Tris-HCl, pH 8.0, 0.01% Tween 20, 1 mM DTT, 10 mM MgCl2, 0.01% BSA) were added to the wells that were then incubated with the test compound for 20 min. A 6 μL solution of 20 μM of the peptide substrate H3K4me0 (histone H3[1-21]-Biotin) in the reaction buffer was added to initiate each reaction. The final components in the reaction solution include 30 nM MLL1-4C, 2.5 μM SAM, and 10 μM H3K4me0 with varying concentration of the compounds. A positive control consisted of 30 nM MLL1-4C, 2.5 μM SAM, and 10 μM substrate in the absence of the test compound, and a negative control consisted of 2.5 μM SAM, and 10 μM substrate only. Each reaction was incubated at rt for 120 min, then stopped by addition of 3 μL per of quench solution (2.5% TFA with 320 nM d4-SAH). The reaction mixture was centrifuged (Eppendorf centrifuge 5810, Rotor A-4-62) for 2 min at 2000 rpm. The SAH production from the enzymatic assays were monitored by LC-MS/MS on an API 4000 triple quadrupole mass spec with Turbolon Spray (Applied Biosystem) coupled with Prominenece UFLC (Shimazu). The level of SAH production were then normalized based on the values coming from the positive and negative controls to give percent enzyme activities. The data were then fit to a dose response equation using the program Helios (Novartis) to get the IC50 values of the test compounds.
Structure (SMILES),IC50 (H3K4me3 in MV4-11 cells),IC50 (MV4-11 cells),IC50 ([1]; read-out: LCMS),IC50 ([1]; read-out: MLL1 LCMS)
Nc1ncnc2c1ncn2Cc1c(N2CC[C@](N)(C(=O)NCCc3c[nH]cn3)C2)ccc(F)c1C(F)(F)F [Example 121],< 1900 nM,< 2000 nM,< 50 nM,–
COC(=O)[C@@]1(N)CCN(c2cc(Cl)cc(C3CCC3)c2Cn2cnc3c(N)ncnc32)C1 [Example 29],< 1900 nM,< 2000 nM,< 50 nM,–
CCc1cc(Cl)cc(N2CC[C@](N)(CCc3nn[nH]n3)C2)c1Cn1cnc2c(N)ncnc21 [Example 40],> 3000 nM,–,> 100 nM,–
CCCNC(=O)CCNC(=O)[C@@]1(N)CCN(c2ccc(F)c(C(F)(F)F)c2Cn2cnc3c(N)ncnc32)C1 [Example 139],< 1900 nM,< 2000 nM,50 to 100 nM,–
NC(=O)CCC1(N)CCN(c2cc(Cl)cc(Br)c2Cn2cnc3c(N)ncnc32)C1 (stereo not shown) [Example 37],> 3000 nM,–,> 100 nM,–
CCc1cc(Cl)cc(N2CC[C@](N)(CCc3nnc(NC)s3)C2)c1Cn1cnc2c(N)ncnc21 [Example 35],> 3000 nM,–,50 to 100 nM,–
COC1CC2(C1)CC2NC(=O)[C@@]1(N)CCN(c2ccc(F)c(C(F)(F)F)c2Cn2cnc3c(N)ncnc32)C1 (stereo partly shown) [Example 130],< 1900 nM,< 2000 nM,< 50 nM,–
Nc1ncnc2c1ncn2Cc1c(N2CC[C@](N)(C(=O)NCC3CC3(F)F)C2)ccc(F)c1C(F)(F)F (stereo partly shown) [Example 122],< 1900 nM,< 2000 nM,< 50 nM,–
C=Cc1cc(Cl)cc(N2CC[C@](N)(c3nc[nH]n3)C2)c1Cn1cnc2c(N)ncnc21 [Example 24],< 1900 nM,< 2000 nM,< 50 nM,–
"Nc1ncnc2c1ncn2Cc1c(Br)cc(Cl)cc1N1CC[C@](N)(CCc2nn[nH]n2)C1 (single isomer, unassigned) [Example 39]",> 3000 nM,–,< 50 nM,–
CCOC(=O)CC[C@@]1(N)CCN(c2cc(Cl)cc(Br)c2Cn2cnc3c(N)ncnc32)C1 [Example 34],< 1900 nM,–,> 100 nM,–
CN(C)Cc1c(Cl)cc(Cl)c(N2CC[C@](N)(C(=O)NC3CC3)C2)c1Cn1cnc2c(N)ncnc21 [Example 74],> 3000 nM,–,> 100 nM,–
CCNC(=O)CC[C@@]1(N)CCN(c2cc(Cl)cc(CC)c2Cn2cnc3c(N)ncnc32)C1 [Example 38],> 3000 nM,–,< 50 nM,–
Nc1ncnc2c1ncn2Cc1c(Br)cc(Cl)cc1N1CC[C@](N)(COCC(=O)NC2CC2)C1 [Example 30],> 3000 nM,–,> 100 nM,–
"CN(C)Cc1cc(Cl)c(Cl)c(N2CC[C@](N)(C(=O)NC3CC3)C2)c1Cn1cnc2c(N)ncnc21 [Example 89, (R)-3-amino-1-(2-((6-amino-9H-purin-9-yl)methyl)-5,6-dichloro-3-((dimethylamino)methyl)phenyl)-N-cyclopropylpyrrolidine-3-carboxamide]",> 3000 nM,–,> 100 nM,–
"CCNC(=O)CC[C@@]1(N)CCN(c2cc(Cl)cc(Br)c2Cn2cnc3c(N)ncnc32)C1 (single isomer, unassigned) [Example 36]",> 3000 nM,–,50 to 100 nM,–
"Cn1nnc([C@@]2(N)CCN(c3cc(Cl)cc(Br)c3Cn3cnc4c(N)ncnc43)C2)n1 [Example 91, (R)-9-(2-(3-amino-3-(2-methyl-2H-tetrazol-5-yl)pyrrolidin-1-yl)-6-bromo-4-chlorobenzyl)-9H-purin-6-amine]",> 3000 nM,–,50 to 100 nM,–
Nc1ncnc2c1ncn2Cc1c(Br)cc(Cl)cc1N1CC[C@](N)(c2cc(C(F)(F)F)ccn2)C1 [Example 27],> 3000 nM,–,< 50 nM,–

# Continued, values first:
IC50 (H3K4me3 in MV4-11 cells),IC50 (MV4-11 cells),IC50 ([1]; read-out: LCMS),IC50 ([1]; read-out: MLL1 LCMS),Structure (SMILES)
< 1900 nM,< 2000 nM,50 to 100 nM,–,Nc1ncnc2c1ncn2Cc1c(N2CC[C@](N)(C(=O)NC3CC3)C2)ccc(F)c1CN1CCCC1 [Example 61]
< 1900 nM,< 2000 nM,50 to 100 nM,–,CCc1c(C(F)(F)F)ccc(N2CC[C@](N)(C(=O)NC3CC3)C2)c1Cn1cnc2c(N)ncnc21 [Example 12]
< 1900 nM,< 2000 nM,50 to 100 nM,–,CN(C)Cc1c(Cl)ccc(N2CC[C@](N)(C(=O)NC3CC3)C2)c1Cn1cnc2c(N)ncnc21 [Example 60]
< 1900 nM,< 2000 nM,< 50 nM,–,Nc1ncnc2c1ncn2Cc1c(N2CC[C@](N)(C(=O)NC3CCOC3)C2)ccc(F)c1C(F)(F)F (stereo partly shown) [Example 129]
< 1900 nM,< 2000 nM,< 50 nM,–,Nc1ncnc2c1ncn2Cc1c(N2CC[C@](N)(C(=O)NC3CC3)C2)ccc(F)c1CN1CC[C@H](F)C1 [Example 68]
< 1900 nM,< 2000 nM,< 50 nM,–,[2H]C([2H])([2H])OCc1c(Cl)ccc(N2CC[C@](N)(C(=O)NC3CC3)C2)c1Cn1cnc2c(N)ncnc21 [Example 81]
< 1900 nM,< 2000 nM,< 50 nM,–,CCSc1c(Cl)ccc(N2CC[C@](N)(C(=O)NC3CC3)C2)c1Cn1cnc2c(N)ncnc21 [Example 113]
< 1900 nM,< 2000 nM,< 50 nM,–,Nc1ncnc2c1ncn2Cc1c(N2CC[C@](N)(C(=O)NC3CC3)C2)cc(-c2cccs2)cc1C(F)(F)F [Example 94]
< 1900 nM,< 2000 nM,< 50 nM,–,CCN(Cc1c(F)ccc(N2CC[C@](N)(C(=O)NC3CC3)C2)c1Cn1cnc2c(N)ncnc21)C1CC1 [Example 59]
< 1900 nM,< 2000 nM,< 50 nM,–,CN(C)Cc1c(C(F)(F)F)ccc(N2CC[C@](N)(C(=O)NC3CC3)C2)c1Cn1cnc2c(N)ncnc21 [Example 47]
> 3000 nM,–,50 to 100 nM,–,COc1ccc(Br)c(Cn2cnc3c(N)ncnc32)c1N1CC[C@](N)(C(=O)NC2CC2)C1 [Example 21]
> 3000 nM,–,–,> 100 nM,Cc1ccc(Cl)c(Cn2cnc3c(N)ncnc32)c1N1CCC(N)(C(=O)NC2CC2)C1 (stereo not shown) [Example 157]
< 1900 nM,–,–,50 to 100 nM,Nc1ncnc2c1ncn2Cc1c(N2CC[C@@](N)(C(=O)NC3CC3)C2)ccc2ccccc12 [Example 166]
> 3000 nM,–,< 50 nM,–,COC(=O)NCc1c(F)ccc(N2CC[C@](N)(C(=O)NC3CC3)C2)c1Cn1cnc2c(N)ncnc21 [Example 71]
< 1900 nM,–,–,< 50 nM,Nc1ncnc2c1ncn2Cc1c(N2CC[C@](N)(C(=O)NC3CC3)C2)ccc2cc(Br)ccc12 [Example 167]

# — patent US20220380371A1, “MLL1 INHIBITORS AND ANTI-CANCER AGENTS” (NOVARTIS AG, priority 2019, published 2022)
